From ChEMBL document CHEMBL1128763, “Synthesis of 2-substituted d-tryptophan-containing peptide derivatives with endothelin receptor antagonist activity” (Bioorg Med Chem Lett, 1995)

Key:
[1] = target: T1, Endothelin receptor type B (Homo sapiens, UniProt P24530); assay: Functional inhibition of ET-1 induced [Ca2+] increase in human Girardi heart (hGH) cells, which express Endothelin B receptor
T1 sequence (P24530 whole entry): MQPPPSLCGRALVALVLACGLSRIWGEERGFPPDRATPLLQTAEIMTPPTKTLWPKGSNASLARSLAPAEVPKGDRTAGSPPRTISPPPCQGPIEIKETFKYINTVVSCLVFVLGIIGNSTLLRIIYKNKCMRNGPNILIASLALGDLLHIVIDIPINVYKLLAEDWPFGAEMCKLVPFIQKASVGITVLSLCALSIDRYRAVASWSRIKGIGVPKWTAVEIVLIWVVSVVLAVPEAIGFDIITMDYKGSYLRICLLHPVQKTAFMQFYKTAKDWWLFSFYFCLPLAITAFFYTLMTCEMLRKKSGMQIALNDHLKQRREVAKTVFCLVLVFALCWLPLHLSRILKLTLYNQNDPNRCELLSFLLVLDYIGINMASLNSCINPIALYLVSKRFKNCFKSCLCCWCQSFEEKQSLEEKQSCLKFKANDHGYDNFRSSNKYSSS

[2] = target: T2, Endothelin-1 receptor (Homo sapiens, UniProt P25101); assay: Functional inhibition of ET-1 induced [Ca2+] increase in human neuroblastoma-derived SK-N-MC cells, which express Endothelin A receptor; format: cell-based
T2 sequence (P25101 whole entry): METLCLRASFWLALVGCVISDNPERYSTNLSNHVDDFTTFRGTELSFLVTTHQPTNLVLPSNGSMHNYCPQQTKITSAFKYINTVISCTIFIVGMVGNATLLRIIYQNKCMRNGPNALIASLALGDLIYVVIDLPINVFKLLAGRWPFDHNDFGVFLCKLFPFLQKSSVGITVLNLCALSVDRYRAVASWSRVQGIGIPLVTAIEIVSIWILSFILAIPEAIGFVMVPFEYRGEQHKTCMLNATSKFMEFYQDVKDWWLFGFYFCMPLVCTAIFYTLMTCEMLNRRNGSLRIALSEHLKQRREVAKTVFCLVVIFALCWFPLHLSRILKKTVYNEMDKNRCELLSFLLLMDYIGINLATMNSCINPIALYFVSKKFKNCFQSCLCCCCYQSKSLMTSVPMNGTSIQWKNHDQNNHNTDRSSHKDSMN

[3] = target: T3, Endothelin receptor type B (Sus scrofa, UniProt P35463); assay: Inhibitory activity against 125 I-labeled ET-1 binding to Endothelin B receptor in porcine cerebellum membranes; format: cell membranes, Membrane
T3 sequence (P35463 whole entry): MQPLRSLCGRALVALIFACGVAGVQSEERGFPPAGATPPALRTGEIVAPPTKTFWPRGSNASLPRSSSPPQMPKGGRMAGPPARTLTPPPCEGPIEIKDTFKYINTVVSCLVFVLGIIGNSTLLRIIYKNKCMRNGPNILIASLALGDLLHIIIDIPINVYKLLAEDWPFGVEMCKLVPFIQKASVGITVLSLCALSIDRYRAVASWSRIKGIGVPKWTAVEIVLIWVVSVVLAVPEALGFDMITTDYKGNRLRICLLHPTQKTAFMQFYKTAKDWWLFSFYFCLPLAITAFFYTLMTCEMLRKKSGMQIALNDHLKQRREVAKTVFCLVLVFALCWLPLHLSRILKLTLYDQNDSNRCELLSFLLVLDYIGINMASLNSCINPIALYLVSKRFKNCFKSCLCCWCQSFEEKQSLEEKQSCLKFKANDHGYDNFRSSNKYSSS

[4] = target: T4, Endothelin-1 receptor (Sus scrofa, UniProt Q29010); assay: Inhibitory activity against 125 I-labeled ET-1 binding to Endothelin A receptor in porcine aortic smooth muscle membranes.
T4 sequence (Q29010 whole entry): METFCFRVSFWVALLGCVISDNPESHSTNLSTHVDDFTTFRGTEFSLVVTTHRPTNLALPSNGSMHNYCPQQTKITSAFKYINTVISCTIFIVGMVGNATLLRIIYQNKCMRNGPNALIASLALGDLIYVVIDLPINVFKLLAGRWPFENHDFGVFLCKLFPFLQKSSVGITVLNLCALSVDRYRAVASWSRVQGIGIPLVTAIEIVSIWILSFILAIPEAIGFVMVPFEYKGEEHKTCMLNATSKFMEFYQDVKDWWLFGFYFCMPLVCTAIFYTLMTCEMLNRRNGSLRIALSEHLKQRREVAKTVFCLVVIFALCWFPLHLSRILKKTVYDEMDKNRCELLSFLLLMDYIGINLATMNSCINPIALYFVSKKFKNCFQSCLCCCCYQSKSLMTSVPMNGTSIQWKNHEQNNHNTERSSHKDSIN

Compound | IC50 [1] [nM] | IC50 [2] [nM] | IC50 [3] [nM] | IC50 [4] [nM]
CCCC[C@@H](NC(=O)[C@@H](Cc1c(Br)[nH]c2ccccc12)NC(=O)[C@@H](NC(=O)N1[C@H](C)CCC[C@@H]1C)C1CC1)C(=O)O | 0.8 | 16 |  | 
CCCC[C@@H](NC(=O)[C@@H](Cc1cn(C(=O)OC)c2ccccc12)NC(=O)[C@H](CC(C)(C)C)NC(=O)N1[C@H](C)CCC[C@@H]1C)C(=O)O |  |  | 1.2 | 280
CCCC[C@@H](NC(=O)[C@@H](Cc1c(C#N)[nH]c2ccccc12)NC(=O)[C@@H](NC(=O)N1[C@H](C)CCC[C@@H]1C)C(C)C)C(=O)O | 4 | 6100 |  | 
CC(C)C[C@@H]1NC(=O)[C@@H](C(C)C)NC(=O)C2CCCN2C(=O)[C@@H](CC(=O)O)NC(=O)[C@@H](Cc2c[nH]c3ccccc23)NC1=O (single isomer, unassigned) [BQ-123] |  |  |  | 22
